Consider six compounds from US20260132128A1, “COMPOUND FOR RECOVERING P53 MUTATION FUNCTION AND USE THEREOF” (SHENZHEN ZHONGGE BIOLOGICAL TECHNOLOGY CO., LTD., priority 2022, published 2026).

One series has as its system NUGC-3 cells. The series is described as follows: NUGC-3 cell proliferation assay (CTG). The class given is cell-based, human. The conditions noted are these: for GI50: 6 days, CTG; for Compound GI50 (nM)/Reference compound GI50 (nM): multiple ratio of GI50 of the compound to the reference compound. Put shortly: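 GI50 derived by variable-slope regression of percent inhibition (normalized to blank and 0.1% DMSO controls) from CTG luminescence. Compound was given as 10 threefold dilutions, highest final 10 μM, to overnight-seeded NUGC-3 cells (250/well) for 6 days, 37° C, 5% CO2.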

Another series deals with T1, p53 Y220C (Homo sapiens, UniProt P04637, Y220C).
T1 construct: a truncated mutant containing only amino acids 94-312 of p53; made in house; host or cells: E. coli
Nature of the series: DNA binding test (HTRF): binding of P53Y220C protein to DNA. It counts as biochemical. To be noted: multiple ratio of EC50 of the compound to the reference compound, DNA binding test.

Series [1] can be described thus: Caco-2 cell permeability test. The class given is in vitro ADME. The conditions noted are these: human, pH 7.4, Caco-2, 10 μM; for Papp A→B at 120 min, 10 μM: A to B; for Papp B→A at 120 min, 10 μM: B to A. As to the method:
Caco-2 cells (ATCC, Cat. No. HTB-37) were inoculated to a 96-well plate (Corning HTS Transwell, Cat. No. 3391) at 1.25×10^5/cm2, and the culture medium (DMEM+10% FBS+1% Penicillin-Streptomycin Liquid (100×)+1% NEAA) was replaced every 3 to 4 days. The plate was placed in an incubator at 37° C. with 5% CO2 until a confluent cell monolayer was formed after 21 to 28 days. Before the transport experiment, the culture medium was removed from the cell culture plate, and the plate was washed twice with pre-warmed HBSS buffer (10 mM HEPES, pH 7.4), and 100 μL of HBSS buffer was added to each well. After incubation at 37° C. for 30 minutes, the TEER value was measured using a cell resistance meter (Millicell-ERS2) to confirm the integrity and density of the monolayer cells. The HBSS buffer was discarded, the upper plate containing the cell monolayer membrane was transferred to the corresponding receiving plate, 10 mM test compound stock solution was diluted to a concentration of 10 μM with HBSS transport buffer containing 0.5% BSA, and it was added to the apical side (A side) and basolateral side (B side), respectively. Incubation was carried out for 120 min at 37° C., 5% CO2, and 95% relative humidity, and the permeation of the test compound from A side to B side or from B side to A side and the efflux rate of the compound were determined. The test compound and the reference compound were quantified by LC-MS/MS analysis based on the peak area ratio of analyte/internal standard. The apparent permeability coefficient Papp (cm/s) was calculated using the following formula:
[formula] • wherein, dCr/dt represented the functional relation between cumulative concentration of compound in receptor compartment and time; V represented the volume of solution in receptor compartment (0.1 mL at apical side, and 0.25 mL at basolateral side); A represented the transport surface area, i.e., the monolayer cell area was 0.0804 cm^2; CO represented the initial concentration of compound in donor compartment.
The efflux ratio was calculated using the following formula: […]
The percent recovery was calculated using the following formula:
[formula] [formula] • wherein, Vd represented the volume of donor compartment (0.1 mL on the apical side and 0.25 mL on the basolateral side); C and Cr represented the final concentrations of the transported compound in the donor and receptor compartment, respectively; Cc represented the compound concentration in cell lysate; Vc represented the volume of insert well (which was 0.1 mL in this experiment).

Marks after values point to notes of the source that are not given here.

Consider `CNC(=O)c1ccc(NCC#Cc2nc3c(NC4CCC(N5CC6(COC6)C5)CC4F)cccn3c2CC(F)(F)F)c(OC)c1` (single isomer, unassigned) [Compound 35-6i], for which, in the series with NUGC-3 cells, the GI50 is below 1000 nM and the “Compound GI50 (nM)/Reference compound GI50 (nM)” value (from here on “Compound GI50”) is “A (A: GI50 of the compound ≤ GI50 of the reference compound)”. Moreover, the “Compound EC50 (nM)/Reference compound EC50 (nM)” value (“Compound EC50” for short) at p53 Y220C is “B (B: EC50 of the reference compound<EC50 of the compound≤3.0*EC50 of the reference compound)”. In addition, in series [1], the efflux ratio at 120 min, 10 μM stood at 4.31; the Papp A→B at 120 min, 10 μM amounted to 2.66 ×10⁻⁶ cm/s; the Papp B→A at 120 min, 10 μM came out at 11.4 ×10⁻⁶ cm/s.

The compound `[2H]C([2H])([2H])NC(=O)c1ccc(NCC#Cc2cc3c(NC4CCC(N5CC6(COC6)C5)CC4F)cccn3c2CC(F)(F)F)c(OC([2H])([2H])[2H])c1` (single isomer, unassigned) [Compound 74d] returned a GI50 with NUGC-3 cells (Homo sapiens, NUGC-3, 144 h) below 1000 nM. Besides, the “Compound GI50” value in the series on NUGC-3 cells is recorded as “A (A: GI50 of the compound ≤ GI50 of the reference compound)”. The “Compound EC50” value on p53 Y220C is “A (A: EC50 of the compound≤EC50 of the reference compound)”.

Consider `[2H]C([2H])([2H])NC(=O)c1ccc(NCC#Cc2nc3c(NC4CC[C@@H](N5CC6(COC6)C5)C[C@@H]4F)cccn3c2CC(F)(F)F)c(OC([2H])([2H])[2H])c1` (stereo partly drawn) [Compound 64], for which the 50% growth inhibitory concentration (GI50) with NUGC-3 cells (Homo sapiens, NUGC-3, 144 h) was below 1000 nM. In addition, the “Compound GI50” value in the series with NUGC-3 cells is listed as “B (B: GI50 of the reference compound < GI50 of the compound ≤ 3.0 * GI50 of the reference compound)”. Moreover, the “Compound EC50” value on p53 Y220C was “B (B: EC50 of the reference compound<EC50 of the compound≤3.0*EC50 of the reference compound)”. Besides, in series [1], the efflux ratio at 120 min, 10 μM was determined as 1.22; the Papp A→B at 120 min, 10 μM was found to be 4.92 ×10⁻⁶ cm/s; the basolateral-to-apical permeability (Papp B→A) at 120 min, 10 μM worked out at 5.99 ×10⁻⁶ cm/s.

Take `CNC(=O)c1ccc(NCC#Cc2nc3c(N[C@@H]4CCN(C)C[C@@H]4F)cccn3c2CC(F)(F)F)c(OC)c1` [Compound 5]: the GI50 with NUGC-3 cells (Homo sapiens, NUGC-3, 144 h) was in the range of 1000 to 5000 nM. The “Compound GI50” value with NUGC-3 cells is listed as “B (B: GI50 of the reference compound < GI50 of the compound ≤ 3.0 * GI50 of the reference compound)”. Further, on p53 Y220C, the “Compound EC50” value is listed as “B (B: EC50 of the reference compound<EC50 of the compound≤3.0*EC50 of the reference compound)”. In series [1], the efflux ratio at 120 min, 10 μM was 8.27; the Papp A→B at 120 min, 10 μM worked out at 2.8 ×10⁻⁶ cm/s; the Papp B→A at 120 min, 10 μM worked out at 23.1 ×10⁻⁶ cm/s.

With `COc1cc(C(=O)NC2CC2)ccc1NCC#Cc1nc2c(NC3CC[C@@H](N4CC5(COC5)C4)C[C@@H]3F)cccn2c1CC(F)(F)F` (stereo partly drawn) [Compound 54], the concentration for 50% growth inhibition (GI50) in the series with NUGC-3 cells (Homo sapiens, NUGC-3, 144 h) was below 1000 nM. Further, the “Compound GI50” value with NUGC-3 cells was “C (C: GI50 of the compound ≥ 3 * GI50 of the reference compound)”. Further, the “Compound EC50” value at p53 Y220C is on record as “B (B: EC50 of the reference compound<EC50 of the compound≤3.0*EC50 of the reference compound)”. Also, in series [1], the efflux ratio at 120 min, 10 μM turned out to be 2.24; the Papp A→B at 120 min, 10 μM is 2.3 ×10⁻⁶ cm/s; the Papp B→A at 120 min, 10 μM is 5.16 ×10⁻⁶ cm/s.

Compound `CNC(=O)c1ccc(NCC#Cc2nc3c(NC4CC[C@@H](N5CC6(COC6)C5)C[C@@H]4F)cccn3c2CC(F)(F)F)c(OCF)c1` (stereo partly drawn) [Compound 58] came in with a 50% growth inhibitory concentration (GI50) in the series with NUGC-3 cells (Homo sapiens, NUGC-3, 144 h) below 1000 nM. For the same compound, the “Compound GI50” value with NUGC-3 cells was “B (B: GI50 of the reference compound < GI50 of the compound ≤ 3.0 * GI50 of the reference compound)”. The “Compound EC50” value on p53 Y220C is reported as “B (B: EC50 of the reference compound<EC50 of the compound≤3.0*EC50 of the reference compound)”. In addition, in series [1], the efflux ratio at 120 min, 10 μM was determined as 3.09; the Papp A→B at 120 min, 10 μM was determined as 2.41 ×10⁻⁶ cm/s; the Papp B→A at 120 min, 10 μM came to 7.46 ×10⁻⁶ cm/s.
